# Measured values from PubChem BioAssay AID686998 (Broad Institute, 2013).
# “And” between values parts separate entries of the source, which are not always exact repeats. Identical values can stand only once. Records with an inconclusive call do not appear. The source made the active and inactive calls.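 Rule for the calls: active = falling signal with fitted half-maximal potency no higher than twice the top valid tested dose; inconclusive = poor fit quality, or flat fit spanning -70% to -30%; inactive = potency over limit, rising signal, or flat fit inside 30%.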
# Tested on: Cryptococcus neoformans growth, Alamar Blue, 24 h
# Assay: Cryptococcus neoformans growth inhibition, dose response, Alamar Blue, cherry-picks (AID 686998)
row,Compound,IC50
1,C[C@@H]1CN([C@H](C)CO)C(=O)CCCn2nncc2CO[C@H]1CN(C)Cc1cccc(C(F)(F)F)c1,4.17 µM
2,NC(=S)N/N=C/c1ccc(-c2cc(Cl)ccc2Cl)o1,4.48 µM
3,CCCCNC(=S)N/N=C/c1ccc(C#N)cc1,2.73 µM
4,C[C@H](NC(=O)C[C@@H]1C=C[C@H](NC(=O)CN2CCOCC2)[C@H](CO)O1)c1ccccc1,44.8 µM
5,C[C@@H]1CN([C@H](C)CO)C(=O)c2cc(NS(=O)(=O)c3cn(C)cn3)ccc2O[C@@H](C)CCCCO[C@H]1CN(C)C,62.9 µM
6,C[C@H](CO)N1C[C@H](C)[C@H](CN(C)Cc2ccccc2F)Oc2cc(C3=CCCC3)ccc2S1(=O)=O,36.3 µM
7,N#C[C@H]1[C@@H](c2ccc(C#CCC3CCCC3)cc2)[C@@H](CO)N1C(=O)c1ccccn1,25.9 µM
8,CCC(C)(C(=O)Nc1ccccc1C)N(C(=O)CNC(C)=O)c1ccccc1C (centres undefined),< 0.26 µM
9,CC(=O)N1[C@H](CO)[C@H](c2ccc(-c3ccccc3)cc2)[C@@H]1CNC(=O)C1CC1,4.92 µM
10,Cc1ccc(C2CCN(C(=S)NC3CCCCC3)C2)cc1 (centres undefined),9.63 µM
11,C/C=C/c1ccc([C@@H]2[C@H]3CN(C(=O)Nc4ccc(OC)cc4)CCCCN3[C@H]2CO)cc1,> 70 µM (inactive)
12,Cc1ccc(C(=O)NC(=S)Nc2ccccc2N2CCCC2)cc1[N+](=O)[O-],0.463 µM
13,CC(C)CC#Cc1ccc2c(c1)O[C@H](CN(C)C(=O)C1CCC1)[C@@H](C)CN([C@@H](C)CO)S2(=O)=O,43.5 µM
14,CCCCN1C(=S)NC[C@@H]1Cc1ccccc1,20.9 µM
15,Cc1cc(Cl)ccc1NC(=S)NCc1ccc(F)cc1,15.5 µM
16,COCC#Cc1cnc2c(c1)C(=O)N([C@@H](C)CO)C[C@H](C)[C@H](CN(C)C(=O)Nc1ccc(OC)cc1)O2,> 70 µM (inactive)
17,CC(C)CC#Cc1cnc2c(c1)C(=O)N([C@@H](C)CO)C[C@H](C)[C@H](CN(C)C(=O)c1ccc3c(c1)OCO3)O2,5.12 µM
18,Cc1ccc(/C=C2\SC(=S)N(NS(=O)(=O)c3ccc(C)cc3)C2=O)cc1,12.7 µM
19,O=C(c1cccc(F)c1)N1C[C@H]2[C@@H](c3ccccc31)[C@@H](CO)N2Cc1cocn1,> 70 µM (inactive)
20,COc1cccc(NC(=S)N2CCC(Cc3ccccc3)CC2)c1,8.22 µM
21,CNC[C@@H]1Oc2c(NS(=O)(=O)c3ccc(Cl)cc3)cccc2C(=O)N([C@H](C)CO)C[C@H]1C,> 70 µM (inactive)
22,COC(=O)C1=C(C)N(Cc2ccc(Br)cc2)C(=S)NC1c1cccc(Cl)c1 (centres undefined),5.98 µM
23,COC(=O)C1=C(C)N(Cc2ccccc2)C(=S)NC1c1cccc(OC)c1 (centres undefined),32.5 µM
24,CCNC(=O)C[C@H]1CC[C@@H](NC(=O)NC2CCCCC2)[C@H](CO)O1,53.1 µM

row,Compound,IC50
1,CC(C)NC(=O)N(C)C[C@@H]1Oc2c(NC(=O)C3CCCCC3)cccc2C(=O)N([C@@H](C)CO)C[C@@H]1C,8.12 µM
2,COc1ccc(NC(=S)NCc2ccccc2Cl)c(OC)c1,43.4 µM
3,O=C(NC(=S)NCC1COc2ccccc2O1)c1ccccc1 (centres undefined),11 µM
4,Cc1ccc2c(C)c(C(=O)N3CCN(Cc4ccccn4)CC3)oc2c1C,67.4 µM
5,COC(=O)C1=C(C)N(Cc2ccccc2)C(=S)N[C@H]1c1ccc(Br)cc1,4.51 µM
6,Cc1ccc(S(=O)(=O)N2CC[C@@H]3[C@H](CO)Nc4ccc(-c5ccccc5F)cc4[C@@H]32)cc1,0.997 µM
7,C[C@H](CO)N1C[C@H](C)[C@@H](CN(C)Cc2ccc(Oc3ccccc3)cc2)Oc2ccc(NC(=O)Nc3ccc4c(c3)OCO4)cc2C1=O,> 70 µM (inactive)
8,O=C(C1CCOCC1)N1C[C@H]2[C@@H](c3ccccc31)[C@@H](CO)N2Cc1ccccc1Cl,1.88 µM
9,Cc1ccc(S(=O)(=O)N(C)C[C@H]2Oc3c(cccc3N(C)C)C(=O)N([C@@H](C)CO)C[C@H]2C)cc1,> 70 µM (inactive)
10,COC(=O)C1=C(C)N(Cc2ccc(Cl)cc2)C(=S)NC1c1ccc(F)cc1 (centres undefined),14.8 µM and 20.9 µM
11,CCOC(=O)CNC(=O)CSc1ncnc2c1cnn2-c1ccc(Cl)cc1,67.1 µM
12,COc1cccc(NC(=S)NC(=O)Cc2ccc(Cl)cc2)c1,5.24 µM
13,Cc1ccccc1S(=O)(=O)N[C@@H]1CC[C@H](CCNS(=O)(=O)c2cccc(F)c2)O[C@H]1CO,> 70 µM (inactive)
14,Fc1ccccc1CNC(=S)NCc1ccc(Cl)cc1,12.8 µM
15,C[C@@H]1CN([C@H](C)CO)C(=O)Cc2cc(NC(=O)NC3CCCCC3)ccc2O[C@@H]1CN(C)Cc1ccccc1,> 70 µM (inactive)
16,Cc1ccc(NC(=S)NCc2ccc(Cl)cc2)c(OC(F)F)c1,10.2 µM
17,CC(=O)N[C@H]1CC[C@@H](CCNC(=O)C2CCC2)O[C@H]1CO,50.2 µM
18,CNC[C@@H]1OCCCC[C@@H](C)Oc2ccc(NC(=O)NC(C)C)cc2C(=O)N([C@@H](C)CO)C[C@H]1C,> 70 µM (inactive)
19,C[C@@H]1CCCCO[C@@H](CN(C)C(=O)NC2CCCCC2)[C@H](C)CN([C@@H](C)CO)C(=O)c2cc(NS(=O)(=O)c3cn(C)cn3)ccc2O1,44.3 µM
20,COc1ccc(NC(=O)CN2CCN(S(=O)(=O)c3ccc(C(C)C)cc3)CC2)cc1OC,43.7 µM
21,CC(=O)OC1(C)CC(C)C(=O)C(C(O)CC2CC(=O)NC(=O)C2)C1 (centres undefined),< 0.26 µM
22,O=C(NC(=S)Nc1ccccc1N1CCOCC1)c1ccc(Br)cc1,6.23 µM
23,CC=Cc1ccc2n(c1=O)C[C@@H]1[C@@H](CO)[C@H](C(=O)NCc3ccc4c(c3)OCO4)[C@H]2N1C(=O)C1CC1 (mixture of isomers),23.3 µM
24,C[C@H]1CN([C@@H](C)CO)C(=O)c2cc(C#CC3(O)CCCC3)cnc2O[C@@H]1CN(C)Cc1cccnc1,> 70 µM (inactive)

row,Compound,IC50
1,S=C(NCCc1cccc(Cl)c1)NC1CCCCC1,6.69 µM
2,COc1cccc(C(=O)NC(=S)Nc2ccccc2N2CCOCC2)c1,21.2 µM
3,Cc1ccc(S(=O)(=O)N2CC[C@@H]3[C@H]2c2cc(-c4ccccc4F)ccc2N[C@@H]3CO)cc1,6.14 µM
4,COc1cc(NC(=O)CN2CCN(S(=O)(=O)c3ccc(C(C)C)cc3)CC2)cc(OC)c1,59.4 µM
5,COC(=O)C1=C(C)N(Cc2ccc(Br)cc2)C(=S)NC1c1ccccc1 (centres undefined),13.1 µM
6,CC(NC(=O)COc1ccccc1C(C)(C)C)c1ccccc1 (centres undefined),3.83 µM
7,Cc1c(C(=O)NC(=S)Nc2ccc(N3CCOCC3)cc2)cccc1[N+](=O)[O-],34.7 µM
8,COC(=O)C1=C(C)N(Cc2ccccc2)C(=S)NC1c1cccc(Br)c1 (centres undefined),6.55 µM and 8.35 µM
9,O=C(CN(c1ccccc1)S(=O)(=O)c1ccccc1)Nc1ccc(F)cc1,40.8 µM
10,C[C@@H]1CN([C@H](C)CO)C(=O)c2cccc(NC(=O)c3ccncc3)c2O[C@H]1CN(C)C(=O)Nc1ccc(C(F)(F)F)cc1,67.4 µM
11,COC(=O)C1=C(C)N(Cc2ccc(F)cc2)C(=S)NC1c1ccc(F)cc1 (centres undefined),22.7 µM
12,COC(=O)C1=C(C)N(Cc2ccc(Br)cc2)C(=S)NC1c1ccc(OC)cc1 (centres undefined),26 µM and 32.8 µM
13,S=C(NCCCc1ccccc1)Nc1ccccc1,8.77 µM
14,O=C(NC(=S)NCC1COc2ccccc2O1)c1ccc(Cl)cc1 (centres undefined),6.31 µM
15,C[C@@H]1CN([C@H](C)CO)C(=O)Cc2cc(NC(=O)CCCCCC(=O)Nc3ccccc3N)ccc2O[C@H]1CN(C)C(=O)Nc1ccccc1,4.69 µM
16,CCOc1ccc(C(=O)NC(=S)Nc2ccccc2N2CCCCC2)cc1[N+](=O)[O-],3.11 µM
17,O=C(NC(=S)Nc1cc(Cl)ccc1N1CCOCC1)c1ccccc1[N+](=O)[O-],7.86 µM
18,CCC(=O)N(C)C[C@@H]1Oc2cc(C#CC(C)(C)O)ccc2S(=O)(=O)N([C@@H](C)CO)C[C@H]1C,28.7 µM
19,CO[C@@H]1CN(C)C(=O)c2ccc(NS(=O)(=O)c3ccc(Oc4ccccc4)cc3)cc2OC[C@H](C)NC[C@H]1C,3.78 µM
20,O=C1CCC(C(=O)Nc2ccc([N+](=O)[O-])cc2)N1 (centres undefined),10.1 µM
21,Cc1ccccc1NC(=O)C(NC1CCCCC1)C(C)C (centres undefined),1.46 µM
22,S=C(Nc1cccc(Cl)c1)Nc1ccccc1Oc1ccccc1,13.2 µM
23,CCc1ccc(C(C)NC(=S)NCc2ccc(F)cc2)cc1 (centres undefined),7.31 µM
24,COc1cccc(CNC(=O)COc2ccc(C(=O)c3ccccc3)cc2)c1,21 µM

row,Compound,IC50
1,CCC(=O)N1[C@H](CN(C)C(C)=O)[C@@H](c2ccc(C3=CCCCC3)cc2)[C@@H]1CO,40.4 µM
2,O=C(CN1CCOCC1)N[C@@H]1CC[C@@H](CCNC(=O)C2CCC2)O[C@@H]1CO,43.7 µM
3,CC(C)NC(=O)Nc1ccc2c(c1)CC(=O)N([C@H](C)CO)C[C@H](C)[C@@H](CN(C)C(=O)Nc1ccc3c(c1)OCO3)O2,> 70 µM (inactive)
4,Cc1c(C(=O)NC(=S)Nc2ccccc2N2CCCC2)cccc1[N+](=O)[O-],2.71 µM
5,Cc1cccc(NC(=S)NN(Cc2ccccc2)c2ccccc2)c1C,11.9 µM
6,Cc1cc(C)c(NC(=O)CN(C2CCCCC2)C2CCCCC2)c(C)c1,32.9 µM
7,CN1c2ccc(-c3ccc(F)cc3)cc2[C@@H]2[C@@H](CCN2C(=O)C2CCOCC2)[C@@H]1CO,0.756 µM
8,COc1ccc(CNC(=S)NCc2ccc(OC(C)C)cc2)cc1,30.4 µM
9,C[C@H](NC(=O)C[C@H]1CC[C@@H](NC(=O)Cc2ccccn2)[C@@H](CO)O1)c1ccccc1,47.2 µM
10,COc1ccc(C(=O)NC(=S)Nc2ccccc2N2CCCCC2)cc1[N+](=O)[O-],1.49 µM
11,COC(=O)C1=C(C)N(Cc2ccc(F)cc2)C(=S)NC1c1cccc(F)c1 (centres undefined),22.1 µM
12,O=C(c1cccs1)N1CCN(c2nc3ccccc3s2)CC1,> 70 µM (inactive)
13,O=C(C1CCOCC1)N1CC[C@@H]2[C@@H](CO)Nc3ccc(Br)cc3[C@@H]21,> 70 µM (inactive)
14,CN1C[C@@H]2C(c3ccc(C(F)(F)F)cc3)C3(c4ccccc4)CC2(C3)[C@H]1c1ccccc1 (some centres undefined),11.2 µM
15,C[C@H](CO)N1C[C@H](C)[C@@H](CN(C)S(=O)(=O)c2cn(C)cn2)Oc2c(NC(=O)Nc3ccccc3)cccc2C1=O,> 70 µM (inactive)
16,CO[C@@H]1CN(C)C(=O)c2cc(NC(=O)C3CCOCC3)ccc2OC[C@H](C)NC[C@@H]1C,67.4 µM
17,O=C(COc1ccccc1)NCc1ccccc1,2.84 µM
18,CCc1ccc(C(=O)NC(=S)Nc2ccccc2N2CCOCC2)cc1,9.06 µM
19,CCC(=O)N1[C@H](CO)[C@@H](c2ccc(-c3cccnc3)cc2)[C@@H]1CN(C)C(C)=O,33.6 µM
20,Cc1ccc(NC(=S)Nc2ccc(Cl)c(Cl)c2)c(OC(F)F)c1,20.6 µM
21,CC(=O)N[C@H]1CC[C@H](CCNC(=O)C2CCC2)O[C@@H]1CO,> 70 µM (inactive)
22,CCC(=O)Nc1ccc2c(c1)C(=O)N(C)C[C@H](OC)[C@@H](C)CN[C@H](C)CO2,> 70 µM (inactive)
